Data published in US20230203096A1, “EPHA4 TARGETING COMPOUNDS AND METHODS OF USE THEREOF” (priority 2020, published 2023).
Entries after “also recorded” stand apart in the source; their conditions may differ. Square brackets hold non-standard residues; d marks the D form. Peptide text beside a SMILES is read from it. * marks the point of attachment. Cyclohexanoyl(1S,3S-3-NH2) = N[C@H]1CCC[C@H](C(=O)*)C1; Trp(5-OH) = N[C@@H](Cc1c[nH]c2ccc(O)cc12)C(=O)O; NH(4-morpholinophenyl) = c1cc(N2CCOCC2)ccc1N*; Bip = N[C@@H](Cc1ccc(-c2ccccc2)cc1)C(=O)O; hArg = N=C(N)NCCCC[C@H](N)C(=O)O

How the values were obtained:
Aqueous solubility = format: physicochemical
EphA3-LBD Chimera = EphA3-LBD Chimera (Homo sapiens, UniProt P54764, C204A/E77D/G52H/I159L/I59G/M164L/M60V/R37K/V157M); test: Isothermal titration calorimetry (ITC) against EphA3-LBD chimera; settings: listed as 150D4
Experimental: Isothermal titration calorimetry (ITC) measurements were performed using the Affinity ITC Autosampler from TA Instruments (New Castle, Del.). The titrations were performed in a reverse fashion by titrating the protein into the ligand solution. […] The injections were made at 200 s or 400 s intervals with a stirring speed of 75 rpm. All the solutions were kept in the autosampler at 4° C. The analysis of the thermodynamics signatures and for dissociation constant determination was performed by the NanoAnalyze software (TA Instruments, New Castle, Del.) and subsequently exported into Microsoft Excel.

[1] = molecular target: T1, ^13C^ε-Met-labeled EphA4-LBD (Homo sapiens, UniProt P54764, C204A); test: 2D [13C,1H] HSQC NMR chemical shift perturbation of Met resonances; format: binding
T1 construct: His tag (N); made in house; host or cells: E. coli Rosetta-Gami B(DE3), pET15b
Experimental: Peptides were synthesized by using standard solid-phase synthesis protocol, using the BAL resin as anchoring for the C-terminal amines. Isothermal Titration Calorimetry (ITC) measurements were performed in a reverse fashion by titrating the protein into the ligand solution. Solution nuclear magnetic resonance (NMR) experiments were conducted on a 700 MHz Bruker Avance spectrometer equipped with a TCI cryoprobe. […]
2D [^13C,^1H] correlation NMR spectra measured with such protein targets, collected in absence or presence of test ligands can be used to monitor ligand binding and make, albeit qualitative, determinations on possible conformational changes induced by test ligands on the protein target. […] In targeting EphA4, an important aspect regarding the activity of its ligands is whether these agents could be predicted to work as antagonists or agonists.
NMR spectra were acquired on Bruker Avance III 700 MHz spectrometer equipped with a TCI cryoprobe. All NMR data were processed and analyzed using TOPSPIN 3.6.1 (Bruker, Billerica, Mass., USA).
Chemical shift changes (A) in the 2D [^13C, ^1H] spectra were calculated as weight average perturbations observed in the ^1H and ^13C dimensions using the following Equation: […]

[2] = test ligands at 40 μM, EphA4-LDB at 20 μM, Table 8

T1 sequence (P54764 29-209 C204A): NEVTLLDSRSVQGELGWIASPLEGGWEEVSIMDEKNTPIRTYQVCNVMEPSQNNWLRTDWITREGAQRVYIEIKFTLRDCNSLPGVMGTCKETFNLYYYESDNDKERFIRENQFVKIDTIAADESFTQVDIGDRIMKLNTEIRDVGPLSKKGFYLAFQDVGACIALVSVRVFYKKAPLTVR
EphA3-LBD Chimera, sequence (P54764 29-209 R37K/G52H/I59G/M60V/E77D/V157M/I159L/M164L/C204A): as the sequence (P54764 29-209 C204A) above, with R9K, G24H, I31G, M32V, E49D, V129M, I131L, M136L counted along it

## N=C(N)NCCCC[C@H](NC(=O)[C@H](Cc1ccc(-c2ccccc2)cc1)NC(=O)[C@H](Cc1c[nH]c2ccc(O)cc12)NC(=O)[C@H]1CCC[C@H](N)C1)C(=O)NCC(=O)Nc1ccc(N2CCOCC2)cc1 [Compound 8, (1S,3S)—N—((S)-1-(((S)-3-([1,1′-biphenyl]-4-yl)-1-(((S)-6-guanidino-1-((2-((4-morpholinophenyl)amino)-2-oxoethyl)amino)-1-oxohexan-2-yl)amino)-1-oxopropan-2-yl)amino)-3-(5-hydroxy-1H-indol-3-yl)-1-oxopropan-2-yl)-3-aminocyclohexane-1-carboxamide] ({Cyclohexanoyl(1S,3S-3-NH2)}-[Trp(5-OH)][Bip][hArg]G-{NH(4-morpholinophenyl)})
Aqueous solubility
  Aqueous Solubility: >50 mM
EphA3-LBD Chimera
  binding to EphA3 (in words): limited binding; also recorded: markedly reduced affinity
[1]
  chemical shift perturbation of Met 115 (in words): no significant perturbations
[1]; FIG. 8B
  chemical shift changes of Met 60 and Met 164 (in words): large chemical shift changes
[1]; protein 20 μM, 20 μM of each compound
  Δδ ^13C^ϵ/^1H^ϵ Met 164: ++++ (++++ >0.25 ppm)
[1]; read-out: estimated upper limit for the off rate for the complex koff
  koff: < 60 s⁻¹
[1]; [2]
  Δδ Met 60: ++ (0.1 ppm < ++ <0.2 ppm)
  Δδ Met 115: + (0< + <0.1 ppm)
  Δδ Met 164: ++++ (++++ >0.25 ppm)
